Reference: ChEMBL document CHEMBL6127011, “Design, synthesis, and evaluation of benzodioxolane compounds for antitumor activity” (Bioorg Med Chem Lett, 2024)
Activity calls are given as the source filed them. The rule behind the calls is not given here.

Tests used:
[1] = test system: HeLa; test: Antiproliferative activity against human HeLa cells by MTT assay; type: functional, cell-based
[2] = test system: HEK-293T; test: (§1) Cytotoxicity against human HEK293T cells by MTT assay; type: toxicity, cell-based; details: hek-293t; for Activity: human
[3] = test system: MDA-MB-231; test: Antiproliferative activity against human MDA-MB-231 cells by MTT assay; type: functional, cell-based
[4] = as §1; type: toxicity, cell-based, HEK-293T; details: human, HEK293T cells
[5] = test system: HeLa; test: Inhibition of cell adhesion in human HeLa cells at 10 uM; type: functional
[6] = test system: HeLa; test: Inhibition of cell migration in human HeLa cells assessed as migration rate at 10 uM incubated for 24 hrs by transwell assay; values are per cent of control
[7] = Inhibition of tumor angiogenesis in human HeLa cells xenografted in chick embryo chorioallantoic membrane at 10 uM incubated for 24 hrs; values are per cent of control
[8] = test system: HeLa; test: Inhibition of colony formation in human HeLa cells at 10 uM incubated for 24 hrs; type: functional
[9] = Inhibition of tumor angiogenesis in human HeLa cells xenografted in chick embryo chorioallantoic membrane at 2.5 uM incubated for 24 hrs; values are per cent of control
[10] = test system: HeLa; test: Inhibition of cell migration in human HeLa cells assessed as migration rate at 2.5 uM incubated for 24 hrs by transwell assay; values are per cent of control
[11] = test system: HeLa; test: Antitumor activity against human HeLa cells xenografted in chicken embryo chorioallantoic membrane assessed as reduction in tumor weight at 10 uM (reference value: 39 +/- 1.41 mg); type: functional
[12] = test system: HeLa; test: Inhibition of colony formation in human HeLa cells incubated for 24 hrs; type: functional, cell-based; details: dose 2.5-10 µM
[13] = test system: HeLa; test: Antitumor activity against human HeLa cells xenografted in chicken embryo chorioallantoic membrane assessed as reduction in tumor weight at 2.5 uM (reference value: 39 +/- 1.41 mg); type: functional
[14] = test system: HeLa; test: Inhibition of cell adhesion in human HeLa cells; type: functional, cell-based
[15] = test system: HeLa; test: Antitumor activity against human HeLa cells xenografted in chicken embryo chorioallantoic membrane assessed as reduction in tumor weight at 5 uM (reference value: 39 +/- 1.41 mg); type: functional
[16] = Inhibition of tumor angiogenesis in human HeLa cells xenografted in chick embryo chorioallantoic membrane at 5 uM incubated for 24 hrs; values are per cent of control
[17] = test system: HeLa; test: Inhibition of cell migration in human HeLa cells assessed as migration rate at 5 uM incubated for 24 hrs by transwell assay; values are per cent of control

For `COc1cc2c(cc1OC)C(=O)C(CC1CCN(C(=O)c3ccc4c(c3)OC(F)(F)O4)CC1)C2` (configuration not stated), the IC50 [1] was 38 µM, the Activity [2] was “Non-Toxic” and the IC50 [3] was 81.3 µM.

With `COc1cc2c(cc1OC)C(=O)C(CC1CCN(C(=O)/C=C/c3cc4c(cc3Br)OCO4)CC1)C2` (configuration not stated) the IC50 [1] was 29.5 µM, the Activity [2] was “Non-Toxic” and the IC50 [3] was 15.2 µM.

In the case of `COc1cc2c(cc1OC)C(=O)C(CC1CCN(C(=O)c3ccc4c(c3)OCO4)CC1)C2` (configuration not stated), the IC50 [1] is reported as 25 µM, the IC50 [4] is reported as 405 µM and the IC50 [3] is reported as 80.6 µM.

Work on `COc1cc2c(cc1OC)C(=O)C(CC1CCN(C(=O)/C=C/C=C/c3ccc4c(c3)OCO4)CC1)C2` (configuration not stated) yielded an IC50 [1] of 32.1 µM, an IC50 [4] of 61.9 µM and an IC50 [3] of 123 µM.

In the case of `O=C1CCC(N2Cc3c(NC(=O)Cc4ccc5c(c4)OCO5)cccc3C2=O)C(=O)N1` (configuration not stated), the IC50 [1] is reported as 63.2 µM, the IC50 [2] is reported as 1430 µM and the Activity [3] is reported as “inactive”.

Compound `O=C(/C=C/C=C/c1ccc2c(c1)OCO2)Nc1cccc2c1CN(C1CCC(=O)NC1=O)C2=O` (configuration not stated) has an IC50 [1] of 50.4 µM, an IC50 [4] of 81.5 µM and an IC50 [3] of 80.7 µM.

For `O=c1[nH]cc(F)c(=O)[nH]1` [FLUOROURACIL], the IC50 [1] was 44.6 µM, the IC50 [4] was 3.21 µM and the inhibition at 10 µM [5] was 55.8%. The IC50 [3] was 18.1 µM, the migration rate (% of control) at 10 µM [6] was 47.3% and the angiogenesis (% of control) at 10 µM [7] was 78.8%. It also gave an inhibition at 10 µM [8] of 52.1%.

With `Cc1cn(-c2cc(NC(=O)c3ccc4c(c3)OCO4)cc(C(F)(F)F)c2)cn1` the IC50 [1] was 50.6 µM, the IC50 [4] was 479 µM and the IC50 [3] was 254 µM.

In the case of `O=C(/C=C/C=C/c1ccc2c(c1)OCO2)N1CCCCC1` [PIPERINE], the IC50 [1] is reported as 44.4 µM, the IC50 [4] is reported as 42.8 µM and the IC50 [3] is reported as 239 µM.

`Cc1cn(-c2cc(NC(=O)/C=C/C=C/c3ccc4c(c3)OCO4)cc(C(F)(F)F)c2)cn1` showed an IC50 [1] of 10.2 µM, an angiogenesis (% of control) at 2.5 µM [9] of 93.2% and an IC50 [4] of 104 µM. For the same compound, the migration rate (% of control) at 2.5 µM [10] was 80.3%, the Activity [11] was 7.5 mg and the inhibition at 10 µM [5] was 16.7%. For the same compound, the inhibition [12] was “Dose-Dependent Effect”, the IC50 [3] was 22.8 µM and the Activity [13] was 28.5 mg. The inhibition [14] was “Dose-Dependent Effect”, the Activity [15] was 13.5 mg and the migration rate (% of control) at 10 µM [6] was 27.6%. The angiogenesis (% of control) at 5 µM [16] was 78.4%, the migration rate (% of control) at 5 µM [17] was 50.4% and the angiogenesis (% of control) at 10 µM [7] was 61.9%. The inhibition at 10 µM [8] was 25.1%.

Compound `Cc1cn(-c2cc(NC(=O)Cc3ccc4c(c3)OCO4)cc(C(F)(F)F)c2)cn1` has an IC50 [1] of 7.81 µM, an IC50 [4] of 18.9 µM and an IC50 [3] of 46.9 µM.

For `O=C1CCC(N2Cc3c(NC(=O)c4ccc5c(c4)OCO5)cccc3C2=O)C(=O)N1` (configuration not stated), the IC50 [1] was 11.5 µM, the IC50 [4] was 625 µM and the IC50 [3] was 284 µM.

With `COc1cc2c(cc1OC)C(=O)C(CC1CCN(C(=O)/C=C/c3ccc4c(c3)OCO4)CC1)C2` (configuration not stated) the IC50 [1] was 18.5 µM, the IC50 [4] was 8.03 µM and the IC50 [3] was 105 µM.

Compound `Cc1cn(-c2cc(NC(=O)/C=C/c3ccc4c(c3)OCO4)cc(C(F)(F)F)c2)cn1` has an IC50 [1] of 8.61 µM, an IC50 [4] of 18.7 µM and an IC50 [3] of 28.8 µM.

For `O=C(/C=C/c1ccc2c(c1)OCO2)Nc1cccc2c1CN(C1CCC(=O)NC1=O)C2=O` (configuration not stated), the IC50 [1] was 37.3 µM, the IC50 [2] was 1440 µM and the Activity [3] was “inactive”.
